Reference: ChEMBL document CHEMBL4418268, “Nitrogen-containing heterocyclic compound” (2018)

Each compound was assayed on HUVEC (assay: Inhibition of TNF-alpha-induced CXCL10 production in HUVEC cells at 0.1 uM incubated for 1 hr followed by TNF-alpha addition and measured after 72 hrs by ELISA relative to control). Conditions: Homo sapiens.
Type: functional
`CCn1c(=O)cc(N2CCOCC2)c2cc(-n3c(-c4ccc(C)cc4)c[nH]c3=O)ccc21` was tested, and the inhibition at 0.1 µM was no less than 50%. `CCn1c(=O)cc(N2CCOCC2)c2cc(-n3c(-c4ccc(C)cc4)cn(C)c3=O)ccc21` showed an inhibition at 0.1 µM of no less than 50%. `CCn1c(=O)cc(C2CC2)c2cc(-n3c(-c4ccc(Cl)cc4)cn(C)c3=O)ccc21` gave an inhibition at 0.1 µM of no less than 50%. With `CCn1c(=O)cc(C(C)C)c2cc(N(C)C(=O)c3ccc(Cl)cc3)ccc21` the inhibition at 0.1 µM was no less than 50%. Compound `CCn1c(=O)cc(C2CC2)c2cc(-c3nc(C)nn3-c3ccccc3)ccc21` has an inhibition at 0.1 µM of no less than 50%. Compound `CCn1c(=O)cc(N2CCOCC2)c2cc(-n3c(-c4ccc(Cl)cc4)cn(C)c3=O)ccc21` has an inhibition at 0.1 µM of no less than 50%. `CCn1c(=O)cc(C2CC2)c2cc(-c3nccnc3-c3ccccc3)ccc21` gave an inhibition at 0.1 µM of no less than 50%. `CCn1c(=O)cc(N2CCOCC2)c2cc(-n3c(-c4ccccc4)cn(CCN4CCCCC4)c3=O)ccc21` showed an inhibition at 0.1 µM of no less than 50%. `CCn1c(=O)cc(C2CC2)c2cc(-n3c(=O)cc(C)n3-c3ccccc3)ccc21` gave an inhibition at 0.1 µM of no less than 50%. Compound `CCCCn1cc(-c2ccccc2)n(-c2ccc3c(c2)c(N2CCOCC2)cc(=O)n3CC)c1=O` has an inhibition at 0.1 µM of no less than 50%. Work on `CCn1c(=O)cc(C2CC2)c2cc(N3C(=O)C(C)C(=O)N3c3ccccc3)ccc21` (stereo unspecified) yielded an inhibition at 0.1 µM of no less than 50%. `CCn1c(=O)cc(C2CC2)c2cc(-n3c(-c4ccc(Cl)cc4)c[nH]c3=O)ccc21` was tested, and the inhibition at 0.1 µM was no less than 50%. Work on `CCn1c(=O)cc(C2CC2)c2cc(N(C)C(=O)c3ccccc3)ccc21` yielded an inhibition at 0.1 µM of no less than 50%. Work on `CCn1c(=O)cc(N2CCOCC2)c2cc(-n3c(-c4ccc(Cl)cc4)c[nH]c3=O)ccc21` yielded an inhibition at 0.1 µM of no less than 50%. Work on `CCn1c(=O)cc(C2CC2)c2cc(-c3nc(C)[nH]c3-c3ccccc3)ccc21` yielded an inhibition at 0.1 µM of no less than 50%. `CCn1c(=O)cc(N2CCOCC2)c2cc(N3C(=O)CC[C@H]3c3ccccc3)ccc21` gave an inhibition at 0.1 µM of no less than 50%. Compound `CCn1c(=O)cc(C2CC2)c2cc(-c3cccnc3-c3ccccc3)ccc21` has an inhibition at 0.1 µM of no less than 50%. `CCn1c(=O)cc(C2CCN(C)CC2)c2cc(C(=O)N(C)c3ccc4c(c3)CCC4)ccc21` was tested, and the inhibition at 0.1 µM was no less than 50%. Work on `CCn1cc(-c2ccccc2)n(-c2ccc3c(c2)c(N2CCOCC2)cc(=O)n3CC)c1=O` yielded an inhibition at 0.1 µM of no less than 50%. `CCn1c(=O)cc(N2CCOCC2)c2cc(-n3c(-c4ccccc4)cn(CCN(C)C)c3=O)ccc21` showed an inhibition at 0.1 µM of no less than 50%. For `CCn1c(=O)cc(C2CC2)c2cc(-n3c(-c4ccc(C)cc4)c[nH]c3=O)ccc21`, the inhibition at 0.1 µM was no less than 50%. Compound `CCC1C(=O)N(c2ccccc2)N(c2ccc3c(c2)c(C2CC2)cc(=O)n3CC)C1=O` (stereo unspecified) has an inhibition at 0.1 µM of no less than 50%. `CCn1c(=O)cc(C2CC2)c2cc(N3C(=O)CC[C@H]3c3ccccc3)ccc21` gave an inhibition at 0.1 µM of no less than 50%. Work on `CCn1c(=O)cc(C2CC2)c2cc(-n3c(=O)[nH]c(=O)n3-c3ccccc3)ccc21` yielded an inhibition at 0.1 µM of no less than 50%. In the case of `CCn1c(=O)cc(C2CCN(C)CC2)c2cc(C(=O)N(C)c3ccc(C)c(C)c3)ccc21`, the inhibition at 0.1 µM is reported as no less than 50%. `CCn1c(=O)cc(C2CCN(C(C)=O)CC2)c2cc(C(=O)N(C)c3ccc(C)cc3)ccc21` was tested, and the inhibition at 0.1 µM was no less than 50%. For `CCn1c(=O)cc(N2CCOCC2)c2cc(-c3nccn3-c3ccccc3)ccc21`, the inhibition at 0.1 µM was no less than 50%. `CCn1c(=O)cc(N2CCOCC2)c2cc(-n3c(-c4ccccc4)cn(CCN4CCOCC4)c3=O)ccc21` gave an inhibition at 0.1 µM of no less than 50%. For `CCn1c(=O)cc(N2CCOCC2)c2cc(-n3c(-c4ccccc4)cn(CCOC)c3=O)ccc21`, the inhibition at 0.1 µM was no less than 50%. `CCn1c(=O)cc(C2CCN(C)CC2)c2cc(C(=O)N(C)c3ccc(C)cc3)ccc21` gave an inhibition at 0.1 µM of no less than 50%. `CCn1c(=O)cc(N2CCOCC2)c2cc(-c3ccccc3-c3ccccc3)ccc21` gave an inhibition at 0.1 µM of no less than 50%. Compound `CCn1c(=O)cc(N2CCOCC2)c2cc(-n3c(-c4ccccc4)cn(C(C)C)c3=O)ccc21` has an inhibition at 0.1 µM of no less than 50%. For `CCn1c(=O)cc(N2CCOCC2)c2cc(-c3cccnc3-c3ccccc3)ccc21`, the inhibition at 0.1 µM was no less than 50%. For `CCn1c(=O)cc(C2CC2)c2cc(-n3c(C)cc(=O)n3-c3ccccc3)ccc21`, the inhibition at 0.1 µM was no less than 50%. `CCn1c(=O)cc(C2CCN(C)CC2)c2cc(C(=O)N3CCCc4ccccc43)ccc21` gave an inhibition at 0.1 µM of no less than 50%. With `CCn1c(=O)cc(N2CCOCC2)c2cc(N(C)C(=O)c3ccc(Cl)cc3)ccc21` the inhibition at 0.1 µM was no less than 50%. `CCn1c(=O)cc(N2CCOCC2)c2cc(-n3ccnc3-c3ccccc3)ccc21` gave an inhibition at 0.1 µM of no less than 50%. `CCn1c(=O)cc(C)c2cc(-c3cccnc3-c3ccccc3)ccc21` was tested, and the inhibition at 0.1 µM was no less than 50%. For `CCn1c(=O)cc(C2CCN(C)CC2)c2cc(C(=O)N(C)c3ccc(C)c(Cl)c3)ccc21`, the inhibition at 0.1 µM was no less than 50%. `CCn1c(=O)cc(C2CC2)c2cc(-n3c(-c4ccc(C(F)(F)F)cc4)cn(C)c3=O)ccc21` showed an inhibition at 0.1 µM of no less than 50%. Compound `CCn1c(=O)cc(N2CCOCC2)c2cc(-n3c(-c4ccc(C(F)(F)F)cc4)c[nH]c3=O)ccc21` has an inhibition at 0.1 µM of no less than 50%. Work on `CCn1c(=O)cc(N2CCOCC2)c2cc(-n3c(-c4ccccc4)cn(CCO)c3=O)ccc21` yielded an inhibition at 0.1 µM of no less than 50%. In the case of `CCn1c(=O)cc(N2CCOCC2)c2cc(-n3cc(C)nc3-c3ccccc3)ccc21`, the inhibition at 0.1 µM is reported as no less than 50%. For `CCCn1cc(-c2ccccc2)n(-c2ccc3c(c2)c(N2CCOCC2)cc(=O)n3CC)c1=O`, the inhibition at 0.1 µM was no less than 50%. With `CCn1c(=O)cc(N2CCOCC2)c2cc(-n3c(-c4ccc(C(F)(F)F)cc4)cn(C)c3=O)ccc21` the inhibition at 0.1 µM was no less than 50%. For `CCN1CCC(c2cc(=O)n(CC)c3ccc(C(=O)N(C)c4ccccc4)cc23)CC1`, the inhibition at 0.1 µM was no less than 50%. For `CCn1c(=O)cc(C2CC2)c2cc(-n3c(-c4ccc(C)cc4)cn(C)c3=O)ccc21`, the inhibition at 0.1 µM was no less than 50%. Compound `CCn1c(=O)cc(C2CCN(C)CC2)c2cc(C(=O)N(C)c3ccc(C)c(F)c3)ccc21` has an inhibition at 0.1 µM of no less than 50%. With `CCn1c(=O)cc(C2CC2)c2cc(-n3c(-c4ccc(C(F)(F)F)cc4)c[nH]c3=O)ccc21` the inhibition at 0.1 µM was no less than 50%. Work on `CCn1c(=O)cc(N2CCOCC2)c2cc(-n3c(-c4ccccc4)c[nH]c3=O)ccc21` yielded an inhibition at 0.1 µM of no less than 50%. `CCn1c(=O)cc(C2CCC(O)CC2)c2cc(C(=O)N(C)c3ccc(Cl)cc3)ccc21` (stereo unspecified) showed an inhibition at 0.1 µM of no less than 50%.
